The values below come from patent publication US20160198747A1, “1H-PYRROLE-DICARBONYL-DERIVATIVES AND THEIR USE AS FLAVORING AGENTS” (IMAX DISCOVERY GMBH, priority 2013, published 2016).

The test system of data set [1] is expert panel (8 panelists). The data set is described as follows: Sensory Test 1: expert panel, aqueous solution, sipping, holding 10 seconds, spitting out. Type of data set: in vivo, human. Here is the method: An expert panel (8 panelists) evaluated the sensory properties of the compound of Formula (I) of Synthesis Example 1. The compound of Formula (I) of Synthesis Example 1 was first dissolved in ethanol and then added in the corresponding amount in water. The aqueous solution was evaluated by sipping, holding it in the mouth for 10 seconds, and then spitting it out. The description “accumulating” means that the flavor perception gradually (further) increases a few seconds after taking the solution into the mouth, often even some time after the solution has been spit out.

In data set [2] the test system is group of 16 trained panelists. The data set can be described thus: Sensory Test 2: trained panelists score a beef broth (bouillon) on eight descriptors. Type of data set: in vivo, human. To be noted: scale 0 to 6, average of 16 panelists. From the text: A group of 16 trained panelists was instructed to evaluate the taste of a broth (bouillon) containing 0.5 wt. % of beef extract (Ref-beef) according to eight different descriptors in several repetitions. In a next step, these panelists were asked to rate said reference beef broth “Ref-beef” (presented at each testing session as a reference) against the following two different compositions consisting of “Ref-beef” and additionally a specific amount of the respective to be tested substance:
“Beef-I”=“Ref-beef”+10 ppm of the compound of Formula (I) of Synthesis Example 1,
“Beef-MSG”=“Ref-beef”+500 ppm (0.05 wt. %) of MSG
“Beef-MSG” was used as a positive umami standard.
The panelists judged the strength/intensity of the eight different descriptors in each case by awarding scores on a scale of from 0 (not corresponding to descriptor) to 6 (very strong). The results are present in the following table and FIGURE. All data are the averaged values for the group of 16 trained panelists for the respective scores for each descriptor.

A short description of data set [3]: Sensory Test 3: Sip and Spit evaluation in water, bouillons, meat products and snacks. Format: in vivo, human. Here is the method:
An additional sensory analysis was performed for the compound of Formula (I) of Synthesis Example 1, by “Sip and Spit” for all evaluations and the key results are summarized in the following table.

For data set [4], the system named is bacterial strains of Salmonella typhimurium. The data set is described as follows: in vitro Ames plate incorporation test. Format: cell-based. From the text: (§1) A particularly preferred compound of the invention is 4-ethyl 2-pyridin-2-ylmethyl-3,5-dimethyl-1H-pyrrole-2,4-dicarboxylate. […] It performs as a MSG replacer at the concentration of 4-20 ppm, depending on the application, whereas at the concentration of 0.5-10 ppm, depending on the application, it performs as a MSG enhancer. The compound is not mutagenic in a standard in vitro Ames plate incorporation test in bacterial strains of Salmonella typhimurium either in the absence or presence of metabolic activation.

The next data set in a line: solubility. Format: physicochemical.
The nature of data set [5]: stability to heat and to day-light. Type of data set: physicochemical.
The subject of another data set is human sensory panel. The data set is described as follows: human sensory panel (summary statement). Type of data set: in vivo.
From the text: as §1

The conditions of data set [6]: as described in US 2009/0311401; cited from earlier work.
Where [7] appears, read: Beef-I = Ref-beef (broth, 0.5 wt. % beef extract) + 10 ppm compound.
Where [8] appears, read: Beef-MSG = Ref-beef (broth, 0.5 wt. % beef extract) + 500 ppm (0.05 wt. %) MSG.

“Also recorded” adds a separate entry of the source.

As for `CCOC(=O)c1c(C)[nH]c(C(=O)OCc2ccccn2)c1C` [Synthesis Example 1, 3,5-dimethyl-1H-pyrrole-2,4-dicarboxylic acid, 4-ethyl 2-(2-pyridinylmethyl)ester], the “Description of sensory effects” value in data set [1] (3 ppm + 0.05 wt. % MSG in water) is listed as “Strong umami, meaty, mouthfeel,; also recorded: mouth-watering”. In addition, the “Description of sensory effects” value in data set [1] (3 ppm in water) was “Strong umami, slightly metallic,; also recorded: some delay but lingering”. Moreover, in data set [1] (30 ppm + 0.05 wt. % MSG in water), the “Description of sensory effects” value was “Umami, meaty, accumulating”. Moreover, the “Description of sensory effects” value in data set [1] (30 ppm in water) was “Strong umami, long lasting”. In addition, in data set [2] (setting [7]), the Long-lastingness score is given as 5.4, the Meaty score is 5.5, the Mouth-watering score is given as 4.9 and the Mouthfeel score came to 5.5. Also, in data set [2] (setting [7]), the Roasty score is 3.9, the Salty score came out at 2.7, the Sour score was 2.9 and the Sweet score was 1.5. In data set [3] (0.5 ppm in chicken bouillon + 0.01% MSG), the “MSG ENHANCEMENT Chicken Bouillon + 0.01% MSG vs. 0.04% MSG, sensory description” value is “warm, meaty; also recorded: fatty, slightly salty, round,; also recorded: slight sweet, good impact,”. Further, the “Performance in Salted Water, sensory description” value in data set [3] (3 ppm in salted water) is recorded as “clean, sweet umami, good”. Also, the “Performance in Water, sensory description” value in data set [3] (3 ppm in water) is on record as “clean, sweet umami, good”. Also, the “MSG REPLACEMENT Chicken Bouillon vs. 0.04% MSG, sensory description” value in data set [3] (4 ppm in chicken bouillon) is recorded as “good, round, nice, clean”. Also, the “MSG ENHANCEMENT Sour Cream & Onion Chips + 0.05% MSG vs. 0.4% MSG, sensory description” value in data set [3] (6 ppm in sour cream & onion chips + 0.05% MSG) was “umami, pleasant, good”. Moreover, in data set [3] (10 ppm in crackers + 0.03% MSG), the “MSG ENHANCEMENT Crackers + 0.03% MSG vs. 0.1% MSG, sensory description” value is on record as “umami, salivating, good”. Further, the “MSG ENHANCEMENT Marinated Chicken + 0.05% MSG vs. 0.3% MSG, sensory description” value in data set [3] (10 ppm in marinated chicken + 0.05% MSG) is on record as “bad, eggy, white meat,; also recorded: malty”. In addition, in data set [3] (10 ppm in pork burger + 0.03% MSG), the “MSG ENHANCEMENT Pork Burger + 0.03% MSG vs. 0.1% MSG, sensory description” value is reported as “umami, sweet”. In addition, in data set [3] (20 ppm in cocido ham), the “MSG REPLACEMENT Cocido Ham vs. 0.1% MSG, sensory description” value was “stronger, ok, meaty, sweet, and good”. Moreover, in data set [3] (20 ppm in marinated chicken), the “MSG REPLACEMENT Marinated Chicken vs. 0.3% MSG, sensory description” value was “meaty, umami balanced,; also recorded: seems salty”. The “MSG REPLACEMENT Sour Cream & Onion Chips vs. 0.4% MSG, sensory description” value in data set [3] (20 ppm in sour cream & onion chips) was “umami balanced, pleasant,; also recorded: lingering, less salty, good,; also recorded: full, salivating, sweet, more; also recorded: creamy”. Besides, in data set [3] (chicken bouillon + 0.01% MSG, vs. 0.04% MSG), the “MSG ENHANCEMENT Chicken Bouillon + 0.01% MSG vs. 0.04% MSG, concentration” value is 0.5 ppm. Besides, in data set [3] (chicken bouillon, vs. 0.04% MSG), the “MSG REPLACEMENT Chicken Bouillon vs. 0.04% MSG, concentration” value was 4 ppm. For the same compound, the “MSG REPLACEMENT Cocido Ham vs. 0.1% MSG, concentration” value in data set [3] (cocido ham, vs. 0.1% MSG) came to 20 ppm. The “MSG ENHANCEMENT Crackers + 0.03% MSG vs. 0.1% MSG, concentration” value in data set [3] (crackers + 0.03% MSG, vs. 0.1% MSG) is listed as 10 ppm. In addition, in data set [3] (depending on the application), the “concentration at which it performs as a MSG enhancer” value was 0.5-10 ppm and the “concentration at which it performs as a MSG replacer” value is given as 4-20 ppm. In addition, the “MSG ENHANCEMENT Marinated Chicken + 0.05% MSG vs. 0.3% MSG, concentration” value in data set [3] (marinated chicken + 0.05% MSG, vs. 0.3% MSG) is 10 ppm. In addition, the “MSG REPLACEMENT Marinated Chicken vs. 0.3% MSG, concentration” value in data set [3] (marinated chicken, vs. 0.3% MSG) worked out at 20 ppm. Further, in data set [3] (pork burger + 0.03% MSG, vs. 0.1% MSG), the “MSG ENHANCEMENT Pork Burger + 0.03% MSG vs. 0.1% MSG, concentration” value is given as 10 ppm. The “MSG REPLACEMENT Pork Burger vs. 0.1% MSG, concentration” value in data set [3] (pork burger, vs. 0.1% MSG) was determined as 20 ppm. The “MSG ENHANCEMENT Sour Cream & Onion Chips + 0.05% MSG vs. 0.4% MSG, concentration” value in data set [3] (sour cream & onion chips + 0.05% MSG, vs. 0.4% MSG) amounted to 6 ppm. Besides, the “MSG REPLACEMENT Sour Cream & Onion Chips vs. 0.4% MSG, concentration” value in data set [3] (sour cream & onion chips, vs. 0.4% MSG) worked out at 20 ppm. Further, in data set [4] (absence of metabolic activation), the “mutagenicity, Ames plate incorporation test” value is on record as “not mutagenic”. In addition, the “mutagenicity, Ames plate incorporation test” value in data set [4] (presence of metabolic activation) is listed as “not mutagenic”. The solubility result in “solubility” is “good solubility”. In addition, the stability to day-light result in data set [5] (day-light) is on record as “stable”. The stability to heat entry in data set [5] (heat) is reported as “stable”. For the same compound, in the data set on human sensory panel, the “after-taste or off notes” value is reported as “No after-taste or off notes are perceived”. The taste perception entry in the data set with human sensory panel (3 ppm) is given as “very pleasant savory taste perception”.

For the compound `N[C@@H](CCC(=O)O)C(=O)[O-].[Na+]` [MSG, monosodium glutamate, reference compound], in data set [2] (setting [8]), the Long-lastingness score was 4.3, the Meaty score is recorded as 5.3, the Mouth-watering score is 4.4 and the Mouthfeel score is 4.8. Further, in data set [2] (setting [8]), the Roasty score is 3.8, the Salty score is given as 2.5, the Sour score was found to be 2.9 and the Sweet score is given as 2.1.

Turning to `CCNC(=O)O[C@H]1C[C@H](C)CC[C@H]1C(C)C` (racemic) [racemate of (1S,2S,5R)-2-isopropyl-5-methylcyclohexyl ethyl carbamate, (1S,2S,5R)-2-isopropyl-5-methylcyclohexyl ethyl carbamate], the flavor profile result in data set [6] is recorded as “cooling, umami, menthol note”.
